Measured values published in patent US11976083B2, “Inhibitors of peptidylarginine deiminases” (Gilead Sciences, Inc., priority 2020, dated 2024).

target: T1, human PAD4 (Homo sapiens, UniProt Q9UM07); assay: In vitro PAD4 BAEE biochemical assay; settings: BAEE substrate 3 mM, 5 nM PAD4, 2 mM calcium chloride; geometric mean of multiple experiments
T1 construct: human PAD4 (NM_012387), A2-P663, was PCR amplified; His-SUMO (N, cleaved yes); made in house; host or cells: E. coli BL21(DE3)
Outline: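 Assay was run at 25 °C using 3 mM BAEE and 5 nM human PAD4 after a 30 min compound preincubation; ammonia produced over 2 h was quantified by OPA-derived fluorescence. Full inhibition was defined by 50 µM BB-Cl-Amidine, and IC50 came from variable-slope nonlinear regression.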

T1 sequence (Q9UM07 2-663): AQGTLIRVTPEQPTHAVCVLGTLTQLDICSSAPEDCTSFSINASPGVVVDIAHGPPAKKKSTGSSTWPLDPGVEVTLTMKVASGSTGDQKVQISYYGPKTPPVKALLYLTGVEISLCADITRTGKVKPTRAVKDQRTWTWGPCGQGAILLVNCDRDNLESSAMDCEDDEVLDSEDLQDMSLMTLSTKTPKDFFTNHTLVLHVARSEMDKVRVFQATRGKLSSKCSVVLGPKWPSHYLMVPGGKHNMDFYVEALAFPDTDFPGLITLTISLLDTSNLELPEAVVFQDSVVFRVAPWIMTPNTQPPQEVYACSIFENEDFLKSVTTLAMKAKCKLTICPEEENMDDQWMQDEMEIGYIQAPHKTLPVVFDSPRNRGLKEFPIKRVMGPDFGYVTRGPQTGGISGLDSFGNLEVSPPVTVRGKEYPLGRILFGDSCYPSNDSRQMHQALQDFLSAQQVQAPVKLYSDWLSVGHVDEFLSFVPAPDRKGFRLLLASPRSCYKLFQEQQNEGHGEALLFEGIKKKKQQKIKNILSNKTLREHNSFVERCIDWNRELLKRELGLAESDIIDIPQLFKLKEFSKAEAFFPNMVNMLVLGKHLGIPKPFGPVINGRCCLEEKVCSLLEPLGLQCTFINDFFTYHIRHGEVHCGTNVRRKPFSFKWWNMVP

C[C@H]1NC(=O)c2cc3ccccc3nc2CCCCCn2c(-c3nc4cc(C(=O)N5C[C@H](N)[C@@H]6CC[C@H]5C6)c(F)c(F)c4n3C3CC3)cc3ccc1nc32 [Example 754, (2~{R})-21-[5-[(1~{S},4~ {R},5~{R})-4-amino-2-azabicyclo[3.2.1]octane-2-carbonyl]-1-cyclopropyl-6,7-difluoro-benzimidazol-2-yl]-2-methyl-3,13,20,26-tetrazapentacyclo[18.5.2.0^ {5,14}.0^{7,12}.0^{23,27}] heptacosa-1(26),5(14),6,8, 10,12,21,23(27),24-nonaen-4-one] and C[C@H]1NC(=O)c2ccc(Cl)nc2CCCCCn2c(-c3nc4cc(C(=O)N5C[C@H](N)[C@@H]6CC[C@H]5C6)cc(OC(F)F)c4n3C3CC3)cc3ccc1nc32 [Example 760, (2~{R})-17-[5-[(1~{S},4~{R}, 5~{R})-4-amino-2-azabicyclo [3.2.1]octane-2-carbonyl]-1-cyclopropyl-7-(difluoromethoxy)benzimidazol-2-yl]-8-chloro-2-methyl-3,9,16,22-tetrazatetracyclo [14.5.2.0^{5,10}.0^{19,23}] tricosa-1(22),5(10), 6,8,17,19(23),20-heptaen-4-one] are within 1.5-fold of each other in IC50: 0.059 µM for the first, 0.07 µM for the second.

C[C@H]1NC(=O)[C@@H]2C[C@H]2CCCC(F)(F)Cn2c(-c3nc4cc(C(=O)N5C[C@H](N)[C@@H]6CC[C@H]5C6)cc(F)c4n3[C@H]3C[C@H]3C(F)F)cc3ccc1nc32 [Example 755, (2~{R},5~{R},7~{R})-14-[5-[(1~{S},4~{R},5~{R})-4-amino-2-azabicyclo[3.2.1]octane-2-carbonyl]-1-[(1~{S},2~{R})-2-(difluoromethyl)cyclopropyl]-7-fluoro-benzimidazol-2-yl]-11,11-difluoro-2-methyl-3,13,19-triazatetracyclo[11.5.2.0^ {5,7}.0^{16,20}]icosa-1(19),14,16(20),17-tetraen-4-one] and C[C@H]1NC(=O)[C@@H]2C[C@H]2CCCC(F)(F)Cn2c(-c3nc4cc(C(=O)N5C[C@H](N)[C@@H]6CC[C@H]5C6)cc(F)c4n3[C@@H]3C[C@@H]3C(F)F)cc3ccc1nc32 [Example 756, (2~{R},5~{R},7~{R})-14-[5-[(1~{S},4~{R},5~{R})-4-amino-2-azabicyclo[3.2.1]octane-2-carbonyl]-1-[(1~{R},2~{S})-2-(difluoromethyl)cyclopropyl]-7-fluoro-benzimidazol-2-yl]-11,11-difluoro-2-methyl-3,13,19-triazatetracyclo [11.5.2.0^{5,7}.0^{16,20}] icosa-1(19),14,16(20),17-tetraen-4-one] are within 1.5-fold of each other in IC50: 0.029 µM for the first, 0.031 µM for the second.

First: COc1cc(C(=O)N2C[C@H](N)[C@@H]3CC[C@H]2C3)cc2nc(-c3cc4ccc5nc4n3CCCCC[C@H]3[C@H](C(=O)N[C@@H]5C)C3(F)F)n(C)c12 [Example 757, (2~{R},5~{R},7~{S})-14-[5-[(1~{S},4~{R},5~{R})-4-amino-2-azabicyclo[3.2.1]octane-2-carbonyl]-7-methoxy-1-methyl-benzimidazol-2-yl]-6,6-difluoro-2-methyl-3,13,19-triazatetracyclo[11.5.2.0^ {5,7}.0^{16,20}]icosa-1(19), 14,16(20),17-tetraen-4-one]
Second: C[C@H]1NC(=O)[C@@H]2C[C@H]2CCCCCn2c(-c3nc4cc(C(=O)N5C[C@H](N)[C@@H]6CC[C@H]5C6)cc(OC(F)F)c4n3C)cc3ccc1nc32 [Example 763, (2~{R},5~{R},7~{R})-14-[5-[(1~{S},4~{R},5~{R})-4-amino-2-azabicyclo[3.2.1]octane-2-carbonyl]-7-(difluoromethoxy)-1-methyl-benzimidazol-2-yl]-2-methyl-3,13,19-triazatetracyclo[11.5.2.0^ {5,7}.0^{16,20}]icosa-1(19),14,16(20),17-tetraen-4-one]
The IC50 of the first is 2.6-fold lower: 0.005 µM for the first, 0.013 µM for the second.

Going from COc1cc(C(=O)N2C[C@H](N)[C@@H]3CC[C@H]2C3)cc2nc(-c3cc4ccc5nc4n3CCCCC[C@]3(F)C[C@H]3C(=O)N[C@@H]5C)c(C3CC3)n12 [Example 758, (2~{R},5~{S},7~{S})-14-[7-[(1~{S},4~{R},5~{R})-4-amino-2-azabicyclo[3.2.1]octane-2-carbonyl]-3-cyclopropyl-5-methoxy-imidazo[1,2-a]pyridin-2-yl]-7-fluoro-2-methyl-3,13,19-triazatetracyclo [11.5.2.0^{5,7}.0^{16,20}] icosa-1(19),14,16(20),17-tetraen-4-one] to COc1cc(C(=O)N2C[C@H](N)[C@@H]3CC[C@H]2C3)cc2nc(-c3cc4ccc5nc4n3CCCCCc3nc(Cl)ccc3C(=O)N[C@@H]5C)c(C3CC3)n12 [Example 768, (2~{R})-17-[7-[(1~{S},4~{R}, 5~{R})-4-amino-2-azabicyclo [3.2.1]octane-2-carbonyl]-3-cyclopropyl-5-methoxy-imidazo[1,2-a]pyridin-2-yl]-8-chloro-2-methyl-3,9,16,22-tetrazatetracyclo[14.5.2.0^ {5,10}.0^{19,23}]tricosa-1(22),5(10),6,8,17,19(23),20-heptaen-4-one], the IC50 rises from 0.017 µM to 0.059 µM (3.5-fold).

C[C@H]1NC(=O)[C@@H]2C[C@H]2CCCCCn2c(-c3nc4cc(C(=O)N5C[C@H](N)[C@@H]6CC[C@H]5C6)cc(OC(F)F)c4n3C3CC3)cc3ccc1nc32 [Example 759, (2~{R},5~{R},7~{R})-14-[5-[(1~{S},4~{R},5~{R})-4-amino-2-azabicyclo[3.2.1]octane-2-carbonyl]-1-cyclopropyl-7-(difluoromethoxy)benzimidazol-2-yl]-2-methyl-3,13,19-triazatetracyclo[11.5.2.0^ {5,7}.0^{16,20}]icosa-1(19), 14,16(20),17-tetraen-4-one] and COc1cc(C(=O)N2C[C@H](N)[C@@H]3CC[C@H]2C3)cc2nc(-c3cc4ccc5nc4n3CCCCC[C@@H]3C[C@H]3C(=O)N[C@@H]5C)n(C3CC3)c12 [Example 767, (2~{R},5~{R},7~{R})-14-[5-[(1~{S},4~{R},5~{R})-4-amino-2-azabicyclo[3.2.1]octane-2-carbonyl]-1-cyclopropyl-7-methoxy-benzimidazol-2-yl]-2-methyl-3,13,19-triazatetracyclo[11.5.2.0^ {5,7}.0^{16,20}]icosa-1(19),14,16(20),17-tetraen-4-one] are within 1.5-fold of each other in IC50: 0.017 µM for the first, 0.018 µM for the second.

Going from COc1cc(C(=O)N2C[C@H](N)[C@@H]3CC[C@H]2C3)cc2nc(-c3cc4ccc5nc4n3CC(F)(F)CCCOC3(CC3)C(=O)N[C@@H]5C)n(C)c12 [Example 761, (11~{R})-17-[5-[(1~{S},4~{R}, 5~{R})-4-amino-2-azabicyclo [3.2.1]octane-2-carbonyl]-7-methoxy-1-methyl-benzimidazol-2-yl]-3,3-difluoro-11-methyl-spiro[7-oxa-1,10,19-triazatricyclo[10.5.2.0^ {15,18}]nonadeca-12(19), 13,15(18),16-tetraene-8,1′-cyclopropane]-9-one] to [2H]C1([2H])[C@H](N)[C@@H]2CC[C@@H](C2)N1C(=O)c1cc(OC)c2c(c1)nc(-c1cc3ccc4nc3n1CC(F)(F)CCC[C@@H]1C[C@H]1C(=O)N[C@@H]4C)n2C [Example 765, (2~{R},5~{R},7~{R})-14-[5-[(1~{S},4~{R},5~{R})-4-amino-3,3-dideuterio-2-azabicyclo[3.2.1]octane-2-carbonyl]-7-methoxy-1-methyl-benzimidazol-2-yl]-11,11-difluoro-2-methyl-3,13,19-triazatetracyclo[11.5.2.0^ {5,7}.0^{16,20}]icosa-1(19),14,16(20),17-tetraen-4-one], the IC50 falls from 0.067 µM to 0.016 µM (4.2-fold).

Going from [2H]C1([2H])[C@H](N)[C@@H]2CC[C@@H](C2)N1C(=O)c1cc(F)c2c(c1)nc(-c1cc3ccc4nc3n1CCCCCc1nc(Cl)ccc1C(=O)N[C@@H]4C)n2C1CC1 [Example 764, (2~{R})-17-[5-[(1~{S},4~{R}, 5~{R})-4-amino-3,3-dideuterio-2-azabicyclo[3.2.1]octane-2-carbonyl]-1-cyclopropyl-7-fluoro-benzimidazol-2-yl]-8-chloro-2-methyl-3,9,16,22-tetrazatetracyclo[14.5.2.0^ {5,10).0^{19,23}]tricosa-1(22),5(10),6,8,17,19(23),20-heptaen-4-one] to [2H]C1([2H])[C@H](N)[C@@H]2CC[C@@H](C2)N1C(=O)c1cc(OC)c2c(c1)nc(-c1cc3ccc4nc3n1CCCCCc1ccccc1C(=O)N[C@@H]4C)n2C [Example 770, (2~{R})-17-[5-[(1~{S},4~{R}, 5~{R})-4-amino-3,3-dideuterio-2-azabicyclo[3.2.1]octane-2-carbonyl]-7-methoxy-1-methyl-benzimidazol-2-yl]-2-methyl-3,16,22-triazatetracyclo[14.5.2.0^ {5,10).0^{19,23}]tricosa-1(22),5(10),6,8,17,19(23), 20-heptaen-4-one], the IC50 falls from 0.022 µM to 0.005 µM (4.4-fold). The second is the more potent here.

Compared with COc1cc(C(=O)N2C[C@H](N)[C@@H]3CC[C@H]2C3)cc2nc(-c3cc4ccc5nc4n3CC(F)(F)CCC[C@@H]3C[C@H]3C(=O)N[C@@H]5C)n(C3CC3)c12 [Example 766, (2~{R},5~{R},7~{R})-14-[5-[(1~{S},4~{R},5~{R})-4-amino-2-azabicyclo[3.2.1]octane-2-carbonyl]-1-cyclopropyl-7-methoxy-benzimidazol-2-yl]-11,11-difluoro-2-methyl-3,13,19-triazatetracyclo [11.5.2.0^{5,7}.0^{16,20}] icosa-1(19),14,16(20),17-tetraen-4-one], COc1cc(C(=O)N2C[C@H](N)[C@@H]3CC[C@H]2C3)cc2nc(-c3cc4ccc5nc4n3CC(F)(F)CCC[C@]3(F)C[C@H]3C(=O)N[C@@H]5C)n(C3CC3)c12 [Example 769, (2~{R},5~{S},7~{S})-14-[5-[(1~{S},4~{R},5~{R})-4-amino-2-azabicyclo[3.2.1]octane-2-carbonyl]-1-cyclopropyl-7-methoxy-benzimidazol-2-yl]-7,11,11-trifluoro-2-methyl-3,13,19-triazatetracyclo [11.5.2.0^{5,7}.0^{16,20}] icosa-1(19),14,16(20), 17-tetraen-4-one] is 2.2-fold lower in IC50: 0.028 µM for the first, 0.013 µM for the second. The second is the more potent here.
